Experimental data as given in paper PMC12250965, “Design and Synthesis of Sulfonium and Selenonium Derivatives Bearing 3′,5′-O-Benzylidene Acetal Side Chain Structure as Potent α-Glucosidase Inhibitors” (Molecules, 2025).
Values after ≈ are worked out from the molar mass of the structure shown. Read-outs that look alike come from different tables or passages of the source. Values belong to the compound of their own block, whether it stands above or below them.

Experiments:
rat intestinal sucrase [1] = target: T1, rat intestinal sucrase (Rattus norvegicus, UniProt P23739); assay: In vitro α-glucosidase inhibition assay, rat intestinal sucrase; assay type: biochemical
T1 construct: rat small intestinal brush border membrane vesicles were first prepared; from tissue; host or cells: rat small intestine, brush border membrane vesicles
T1 sequence (P23739 whole entry): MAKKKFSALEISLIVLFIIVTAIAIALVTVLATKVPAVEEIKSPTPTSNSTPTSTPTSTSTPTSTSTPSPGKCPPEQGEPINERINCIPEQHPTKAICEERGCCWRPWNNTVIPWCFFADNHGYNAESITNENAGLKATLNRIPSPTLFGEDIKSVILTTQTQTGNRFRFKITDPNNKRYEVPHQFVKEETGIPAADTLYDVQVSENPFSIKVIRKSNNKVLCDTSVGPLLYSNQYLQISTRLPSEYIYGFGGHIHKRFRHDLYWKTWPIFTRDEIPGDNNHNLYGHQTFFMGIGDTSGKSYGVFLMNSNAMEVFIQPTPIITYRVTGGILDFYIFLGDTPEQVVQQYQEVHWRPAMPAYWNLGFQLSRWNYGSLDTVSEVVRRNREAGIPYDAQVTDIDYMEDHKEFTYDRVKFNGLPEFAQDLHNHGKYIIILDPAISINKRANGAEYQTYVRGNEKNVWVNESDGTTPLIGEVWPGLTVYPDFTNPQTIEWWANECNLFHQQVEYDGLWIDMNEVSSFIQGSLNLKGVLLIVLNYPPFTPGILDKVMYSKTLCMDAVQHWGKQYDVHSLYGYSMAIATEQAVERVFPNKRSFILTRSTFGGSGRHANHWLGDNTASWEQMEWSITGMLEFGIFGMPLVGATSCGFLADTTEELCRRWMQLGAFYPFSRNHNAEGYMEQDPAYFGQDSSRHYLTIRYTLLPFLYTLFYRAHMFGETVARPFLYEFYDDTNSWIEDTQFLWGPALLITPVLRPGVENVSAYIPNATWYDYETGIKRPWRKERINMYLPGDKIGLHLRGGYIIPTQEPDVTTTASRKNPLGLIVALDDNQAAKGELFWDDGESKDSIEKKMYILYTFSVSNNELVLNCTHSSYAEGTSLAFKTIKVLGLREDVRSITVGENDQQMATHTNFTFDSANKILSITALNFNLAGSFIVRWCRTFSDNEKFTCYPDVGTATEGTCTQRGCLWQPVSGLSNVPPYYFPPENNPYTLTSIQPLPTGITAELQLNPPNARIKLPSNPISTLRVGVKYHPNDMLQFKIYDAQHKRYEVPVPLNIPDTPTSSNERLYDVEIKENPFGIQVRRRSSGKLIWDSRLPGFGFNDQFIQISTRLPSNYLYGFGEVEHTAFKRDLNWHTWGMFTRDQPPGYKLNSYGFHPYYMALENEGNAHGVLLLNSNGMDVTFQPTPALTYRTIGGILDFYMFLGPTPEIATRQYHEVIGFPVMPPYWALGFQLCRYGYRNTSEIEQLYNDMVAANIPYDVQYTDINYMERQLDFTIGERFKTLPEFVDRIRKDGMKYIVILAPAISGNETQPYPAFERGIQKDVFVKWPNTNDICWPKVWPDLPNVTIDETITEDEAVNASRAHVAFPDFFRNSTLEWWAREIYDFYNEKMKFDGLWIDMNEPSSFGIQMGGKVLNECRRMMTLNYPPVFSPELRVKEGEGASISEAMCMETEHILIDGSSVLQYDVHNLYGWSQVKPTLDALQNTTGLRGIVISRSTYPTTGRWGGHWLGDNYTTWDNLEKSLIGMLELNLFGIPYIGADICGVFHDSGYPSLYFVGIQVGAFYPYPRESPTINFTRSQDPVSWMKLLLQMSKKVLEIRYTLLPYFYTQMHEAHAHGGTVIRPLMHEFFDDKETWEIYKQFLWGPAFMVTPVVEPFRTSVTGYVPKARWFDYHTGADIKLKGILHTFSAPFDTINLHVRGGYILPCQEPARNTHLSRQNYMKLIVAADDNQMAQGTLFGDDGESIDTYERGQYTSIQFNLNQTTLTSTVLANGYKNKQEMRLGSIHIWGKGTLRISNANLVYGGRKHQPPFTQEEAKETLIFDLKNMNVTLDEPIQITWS
Description: (§1) The testing method previously described was modified and used. Thus, rat small intestinal brush border membrane vesicles were first prepared, and its suspension in 0.1 M maleate buffer (pH = 6.0) was used as small intestinal α-glucosidases of maltase and sucrase. A test compound was dissolved in dimethylsulfoxide (DMSO), and the resulting solution was diluted with 0.1 M maleate buffer to prepare the test compound solution (concentration of DMSO: 10%). The substrate solution in maleate buffer ([…], 50 μL), a test compound solution (25 μL), and the enzyme solution (25 μL) were mixed and incubated at 37 °C for 30 min. After incubation, the solution was immediately heated by boiling water for 2 min to stop the reaction, and the solution was mixed with water (150 μL). Glucose concentration was determined by the glucose-oxidase method. […] The IC50 value was determined graphically by a plot of percent inhibition versus log of the test compound.

maltose-loaded mice = assay: Maltose loading test (hypoglycemic effect); assay type: in vivo, ICR mice; details: maltose loading 2.0 g/kg, 1.0 mpk
Description: A maltose loading test on compounds 10, 20c, neoponkoranol, and positive control (voglibose) was conducted to further evaluate their in vivo hypoglycemic effects against maltase.
The animal experimental protocols in this study were approved by the Experimental Animal Center of Shanghai Institute of Materia Medica (Shanghai, China). Male ICR (Institute of Cancer Research) mice (29−33 g) after an overnight fast were used for acute maltose and sucrose loading tests. […] A control group was loaded with distillation−distillation water. In the sucrose loading test, sucrose (2.5 g/kg of body weight) and the inhibitor miglitol were dissolved in distillation−distillation water and administered to the mice via a stomach tube. A control group was loaded with distillation−distillation water. Blood samples for glucose measurements were obtained from the tail vein at 0, 15, 30, 60, and 120 min after maltose and sucrose loading. The blood glucose levels were measured by a portable kit, StatStrip Xpress (Nova Biomedical Co., Ltd., Waltham, MA, USA). The AUC over was calculated by the trapezoidal method.

rat intestinal maltase [2] = assay: In vitro α-glucosidase inhibition assay, rat intestinal maltase; assay type: biochemical; details: rat small intestinal brush border membrane vesicles; maltose substrate; mean ± SD (n = 3); read-out: IC50 against maltase
Description: as §1

rat intestinal maltase [3] = details: literature value ^[a]; read-out: IC50 against maltase (converted); cited from earlier work
[4] = test system: HELF, a human embryonic lung fibroblast cell line; assay: MTT cytotoxicity assay on HELF cells; assay type: cell-based; details: different cell lines
Description: The cytotoxicity of selected sulfonium salts (20a, 20c, and 10) was then evaluated via the 3-[4,5-dimethylthiazol-2-yl]-2,5-diphenyl-tetrazolium bromide (MTT) assay against different cell lines.
Briefly, the HELF-adherent cells were cultured in a 96-well plate overnight in a CO2 environment at 37 °C. Supernatant was removed, and 100 μL serially diluted compounds with complete medium DMEM supplemented with 10% (v/v) fetal bovine serum, penicillin (100 units/mL), and streptomycin (100 μg/mL) were added to each well. After the incubation, the culture medium was aspirated carefully, and 50 μL of MTT solution (2mg/mL PBS) was added to each well and further incubated for 4h. After this, MTT solution was aspirated, and cells were PBS-washed once, and 100 μL of DMSO was added to dissolve the blue insoluble MTT formazan produced by the action of mitochondrial dehydrogenase. The plate was agitated at room temperature for 15 min and then read at 570 nm by using a microplate reader. The percentage of viable cells was calculated as the relative ratio of optical densities.

rat intestinal maltase [5] = assay: Inhibition-kinetic study (Lineweaver–Burk), maltase; assay type: biochemical; details: for Ki Maltase (Km = 3.0 mM): small intestinal α-glucosidase, Lineweaver–Burk
Description: (§2) In order to explore the inhibitory mechanism of the α-glucosidase by this family of compounds, enzyme kinetic assays were conducted on 20a, 20c, and 10, followed by a detailed kinetic analysis using the Lineweaver–Burk plots. (Figure 3) The small intestinal brush border membrane vesicles were incubated with varying concentrations of maltose (3.27 mg/mL) for maltase assays and sucrose (52.37 mg/mL) for sucrase assays.
(§3) For kinetic analyses of maltase and sucrase by compounds (20a, 20c, and 10), the enzyme and test samples (1.0 mg/mL for maltase and 0.2 mg/mL for sucrase) were incubated with increasing concentrations of maltose (2.5, 5, 10, 20, 50, 100 μM) and sucrose (5, 10, 20, 50, 100, 1000 μM) at 37 °C for 30 min. The tube was immediately immersed in boiling water for 2 min to stop the reaction, then cooled with water. The glucose concentration was determined by the glucose-oxidase method. […] The Lineweaver–Burk equation follows as: 1/V=Km/Vmax×[…]
(§4) Ki values for each inhibitor were determined by the equation: Ki=[I]×Km/[[…]−Km]

sucrose-loaded mice = assay: Sucrose loading test (hypoglycemic effect); assay type: in vivo, ICR mice; details: sucrose loading […] p.o.
Description: Research has shown a strong association between the 2 h postprandial blood glucose level and the risk of cardiovascular events, diabetic microvascular complications such as retinopathy, and the progression of macrovascular diseases. […] Considering this underlying pathological process, α-glucosidase inhibitors, which efficiently regulate postprandial glucose fluctuations, hold significant therapeutic promise for alleviating diabetes-related complications. […] Subsequently, doses were reduced to 1.0 mg/kg.
The animal experimental protocols in this study were approved by the Experimental Animal Center of Shanghai Institute of Materia Medica (Shanghai, China). Male ICR (Institute of Cancer Research) mice (29−33 g) after an overnight fast were used for acute maltose and sucrose loading tests. In the maltose loading test, maltose ([…] of body weight) and the inhibitors and voglibose were dissolved in distillation−distillation water and administered to the mice via a stomach tube. A control group was loaded with distillation−distillation water. In the sucrose loading test, sucrose (2.5 g/kg of body weight) and the inhibitor miglitol were dissolved in distillation−distillation water and administered to the mice via a stomach tube. A control group was loaded with distillation−distillation water. Blood samples for glucose measurements were obtained from the tail vein at 0, 15, 30, 60, and 120 min after maltose and sucrose loading. The blood glucose levels were measured by a portable kit, StatStrip Xpress (Nova Biomedical Co., Ltd., Waltham, MA, USA). The AUC over was calculated by the trapezoidal method.

rat intestinal sucrase [6] = target: T1, rat intestinal sucrase; assay: Inhibition-kinetic study (Lineweaver–Burk), sucrase; assay type: biochemical
Description: as §2, §3, §4

[7] = rat small intestinal brush border membrane vesicles, sucrose substrate, mean ± SD (n = 3), read-out: IC50 against sucrase

SMILES: OC[C@@H]1[C@@H](O)[C@H](O)C[Se@+]1C[C@@H](O)[C@H]1OC(c2cc(C(F)(F)F)cc(C(F)(F)F)c2)OC[C@H]1O (stereo partly drawn) [20i, (1S,2R,3S,4S)-1-((2S)-2-((4S,5R)-2-(3,5-Bis(trifluoromethyl)phenyl)-5-hydroxy-1,3-dioxan-4-yl)-2-hydroxyethyl)-3,4-dihydroxy-2-(hydroxymethyl)tetrahydro-1H-selenophen-1-ium chloride]
IC50 (rat intestinal sucrase [1]): 0.41 ± 0.11 µM
IC50 (rat intestinal maltase [2]): 1.01 ± 0.32 µM

SMILES: O=[N+]([O-])c1ccc(F)cc1C1OC[C@@H](O)[C@@H]([C@H](O)C[Se@@+]2C[C@@H](O)[C@H](O)[C@H]2CO)O1 (stereo partly drawn) [20j, (1S,2R,3S,4S)-1-((2S)-2-((4S,5R)-2-(5-Fluoro-2-nitrophenyl)-5-hydroxy-1,3-dioxan-4-yl)-2-hydroxyethyl)-3,4-dihydroxy-2-(hydroxymethyl)tetrahydro-1H-selenophen-1-ium chloride]
IC50 (rat intestinal sucrase [1]): 0.09 ± 0.03 µM
IC50 (rat intestinal maltase [2]): 0.33 ± 0.08 µM

SMILES: OC[C@@H]1[C@@H](O)[C@H](O)C[Se@+]1C[C@@H](O)[C@H]1OC(c2cc(F)cc(Cl)c2)OC[C@H]1O (stereo partly drawn) [20h, (1S,2R,3S,4S)-1-((2S)-2-((4S,5R)-2-(3-Chloro-5-fluorophenyl)-5-hydroxy-1,3-dioxan-4-yl)-2-hydroxyethyl)-3,4-dihydroxy-2-(hydroxymethyl)tetrahydro-1H-selenophen-1-ium chloride]
IC50 (rat intestinal sucrase [1]): 1.96 ± 0.25 µM
IC50 (rat intestinal maltase [2]): 3.67 ± 0.89 µM

SMILES: OC[C@@H]1[C@@H](O)[C@H](O)C[Se@@+]1C[C@@H](O)[C@H]1OC(c2ccccc2I)OC[C@H]1O (stereo partly drawn) [20o, (1S,2R,3S,4S)-3,4-Dihydroxy-1-((2S)-2-hydroxy-2-((4S,5R)-5-hydroxy-2-(2-iodophenyl)-1,3-dioxan-4-yl)ethyl)-2-(hydroxymethyl)tetrahydro-1H-selenophen-1-ium chloride]
IC50 (rat intestinal sucrase [1]): 0.3 ± 0.11 µM
IC50 (rat intestinal maltase [2]): 0.36 ± 0.07 µM

SMILES: OC[C@@H]1[C@@H](O)[C@H](O)C[Se@+]1C[C@@H](O)[C@H]1OC(c2cccc(F)c2Cl)OC[C@H]1O (stereo partly drawn) [20d, (1S,2R,3S,4S)-1-((2S)-2-((4S,5R)-2-(2-Chloro-3-fluorophenyl)-5-hydroxy-1,3-dioxan-4-yl)-2-hydroxyethyl)-3,4-dihydroxy-2-(hydroxymethyl)tetrahydro-1H-selenophen-1-ium chloride]
IC50 (rat intestinal sucrase [1]): 0.87 ± 0.23 µM
IC50 (rat intestinal maltase [2]): 0.62 ± 0.07 µM

Continued, in another order:

IC50 (rat intestinal sucrase [1]; [7]): 0.35 µM
IC50 (rat intestinal maltase [2]): 1.45 µM
SMILES: OCC(CO)N[C@H]1C[C@](O)(CO)[C@@H](O)[C@H](O)[C@H]1O [voglibose]
Declined Rate of Blood Glucose Levels, 15 min (maltose-loaded mice): 49.2%
Declined Rate of Blood Glucose Levels, 30 min (maltose-loaded mice): 53.7%
Declined Rate of Blood Glucose Levels, 60 min (maltose-loaded mice; 1 mg/kg): 40.1%
Declined Rate of AUC (maltose-loaded mice; 1 mg/kg): 39.8%
IC50 (rat intestinal maltase [3]): 1.5 µM

type of inhibition, maltase (rat intestinal maltase [5]; Lineweaver–Burk plots): fully competitive
Ki Maltase (Km = 3.0 mM) (rat intestinal maltase [5]): 0.42 mg/L
type of inhibition, sucrase (rat intestinal sucrase [6]; Lineweaver–Burk plots): fully competitive
Ki (rat intestinal sucrase [6]; small intestinal α-glucosidase, Lineweaver–Burk, read-out: Ki Sucrase (Km = 23.56 mM) (converted)): 0.693 µM
SMILES: O=[N+]([O-])c1ccccc1C1OC[C@@H](O)[C@@H]([C@H](O)C[S@@+]2C[C@@H](O)[C@H](O)[C@H]2CO)O1 (some centres unmarked) [compound 10]
cytotoxicity (MTT assay) [4]: non-toxic
Declined Rate of Blood Glucose Levels, 15 min (maltose-loaded mice; 1 mg/kg): 52.8%
Declined Rate of Blood Glucose Levels, 30 min (maltose-loaded mice; 1 mg/kg): 55.0%
Declined Rate of Blood Glucose Levels, 60 min (maltose-loaded mice; 1 mg/kg): 47.2%
Declined Rate of AUC (maltose-loaded mice): 43.5%
Declined Rate of Blood Glucose Levels, 15 min (sucrose-loaded mice; 1.0 mpk): 41.8%
Declined Rate of Blood Glucose Levels, 30 min (sucrose-loaded mice; 1.0 mpk): 43.00%
Declined Rate of Blood Glucose Levels, 60 min (sucrose-loaded mice; 1.0 mpk): 39.1%
Declined Rate of AUC (sucrose-loaded mice; 1.0 mpk): 35.2%
Declined Rate of Blood Glucose Levels, 15 min (sucrose-loaded mice; 10.0 mpk): 48.0%
Declined Rate of Blood Glucose Levels, 30 min (sucrose-loaded mice; 10.0 mpk): 54.6%
Declined Rate of Blood Glucose Levels, 60 min (sucrose-loaded mice; 10.0 mpk): 52.5%
Declined Rate of AUC (sucrose-loaded mice; 10.0 mpk): 46.6%

Ki Maltase (Km = 3.0 mM) (rat intestinal maltase [5]): 1.98 mg/L (≈ 3.07 µM)
IC50 (rat intestinal maltase [2]): 3.5 µM
SMILES: C[C@H]1O[C@H](O[C@H]2[C@H](O)[C@@H](O)[C@@H](O[C@H]3[C@H](O)[C@@H](O)C(O)O[C@@H]3CO)O[C@@H]2CO)[C@H](O)[C@@H](O)[C@@H]1N[C@H]1C=C(CO)[C@@H](O)[C@H](O)[C@H]1O (some centres unmarked) [acarbose]
IC50 (rat intestinal maltase [3]): 3.2 µM
Declined Rate of Blood Glucose Levels, 15 min (sucrose-loaded mice; 20.0 mpk, 20 mg/kg): 45.7%
Declined Rate of Blood Glucose Levels, 30 min (sucrose-loaded mice; 20.0 mpk, 20 mg/kg): 48.4%
Declined Rate of Blood Glucose Levels, 60 min (sucrose-loaded mice; 20.0 mpk): 44.3%
Declined Rate of AUC (sucrose-loaded mice; 20.0 mpk, 20 mg/kg): 40.5%

IC50 (rat intestinal sucrase [1]; [7]): 3.3 ± 0.28 µM
IC50 (rat intestinal maltase [2]): 3.1 ± 0.66 µM
SMILES: OCC1C(O)C(O)C[S+]1CC(O)C1OC(c2ccccc2I)OCC1O [19o, 1,4-Dideoxy-1,4-[(R)-(5-deoxy-1,3-O-(o-iodobenzylidene)-D-arabinitol-5-yl)episulfoniumylidene]-D-arabinitol chloride]

IC50 (rat intestinal sucrase [1]; [7]): 3.3 ± 0.22 µM
IC50 (rat intestinal maltase [2]): 10.5 ± 1.1 µM
SMILES: OCC1C(O)C(O)C[S+]1CC(O)C1OC(c2ccccc2-c2ccccc2)OCC1O [19r, 1,4-Dideoxy-1,4-[(R)-(5-deoxy-1,3-O-(2-phenylbenzylidene)-D-arabinitol-5-yl)episulfoniumylidene]-D-arabinitol chloride]

IC50 (rat intestinal sucrase [1]; [7]): 1.1 ± 0.02 µM
IC50 (rat intestinal maltase [2]): 1.9 ± 0.08 µM
SMILES: OCC1C(O)C(O)C[S+]1CC(O)C1OC(c2ccccc2Br)OCC1O [19k, 1,4-Dideoxy-1,4-[(R)-(5-deoxy-1,3-O-(o-bromobenzylidene)-D-arabinitol-5-yl)episulfoniumylidene]-D-arabinitol chloride]
